Data reported in patent publication US10322111B2, “Chemokine receptor binding heterocyclic compounds with enhanced efficacy” (Genzyme Corporation, priority 2001, dated 2019).
Read-outs that look alike come from different tables or passages of the source.

How the values were obtained:
[1] = tested on: CFU-GM, BFU-E and CFU-GEMM progenitor cells; conditions: for Cycling Status of Progenitors, CFU-GEMM / Cycling Status of Progenitors, CFU-GM / Cycling Status of Progenitors, CFU-GM, AGAR Culture / Cycling Status of Progenitors, BFU-E: 80 μg/kg s.c.
[2] = tested on: CD34 positive progenitor cells
[3] = human volunteers, 80 μg/kg s.c.
[4] = volunteer P1, 1 Hr after 80 μg/kg s.c.
[5] = volunteer P1, 6 Hr after 80 μg/kg s.c.
[6] = volunteer P1, 9 Hr after 80 μg/kg s.c.
[7] = volunteer P1, Day 2 after 80 μg/kg s.c.
[8] = volunteer P2, 1 Hr after 80 μg/kg s.c.
[9] = volunteer P2, 6 Hr after 80 μg/kg s.c.
[10] = volunteer P2, 9 Hr after 80 μg/kg s.c.
[11] = volunteer P2, Day 2 after 80 μg/kg s.c.
[12] = volunteer P3, 1 Hr after 80 μg/kg s.c.
[13] = volunteer P3, 9 Hr after 80 μg/kg s.c.
[14] = volunteer P3, Day 2 after 80 μg/kg s.c.
[15] = volunteer P4, 1 Hr after 80 μg/kg s.c.
[16] = volunteer P4, 6 Hr after 80 μg/kg s.c.
[17] = volunteer P4, 9 Hr after 80 μg/kg s.c.
[18] = volunteer P4, Day 2 after 80 μg/kg s.c.
[19] = volunteer P5, 1 Hr after 80 μg/kg s.c.
[20] = volunteer P5, 6 Hr after 80 μg/kg s.c.
[21] = volunteer P5, 9 Hr after 80 μg/kg s.c.
[22] = volunteer P5, Day 2 after 80 μg/kg s.c.

Question: How did the “Cycling Status of Progenitors, CFU-GEMM” value ([1]; P5, T = 1 h after injection) turn out when c1cc(CN2CCCNCCNCCCNCC2)ccc1CN1CCCNCCNCCCNCC1 [AMD3100, 1,1′-[1,4-phenylene-bis(methylene)]-bis-1,4,8,11-tetraazacyclotetradecane] was run?
Answer: The value was 0%.

Question: What about the “Cycling Status of Progenitors, CFU-GM” value ([1]; P5, T = 1 h after injection) of the same molecule?
Answer: The value was 0%.

Question: And the “Cycling Status of Progenitors, CFU-GM, AGAR Culture” value (“Cycling Status … AGAR Culture” for short) ([1]; P5, T = 1 h after injection)?
Answer: Its value is 3%.

Question: And the “Cycling Status of Progenitors, BFU-E” value ([1]; P5, T = 3 h after injection)?
Answer: Its value is 3%.

Question: And the “Cycling Status of Progenitors, CFU-GEMM” value ([1]; P5, T = 3 h after injection)?
Answer: The value was 0%.

Question: And the “Cycling Status of Progenitors, CFU-GM” value ([1]; P5, T = 3 h after injection)?
Answer: Its value is 5%.

Question: What about the “Cycling Status … AGAR Culture” value ([1]; P5, T = 3 h after injection) of the same molecule?
Answer: Its value is 0%.

Question: And the “Cycling Status of Progenitors, BFU-E” value ([1]; P5, T = 6 h after injection)?
Answer: The value was 1%.

Question: What about the “Cycling Status of Progenitors, CFU-GEMM” value ([1]; P5, T = 6 h after injection) of the same molecule?
Answer: Its value is 0%.

Question: And the “Cycling Status of Progenitors, CFU-GM” value ([1]; P5, T = 6 h after injection)?
Answer: Its value is 0%.

Question: What about the “Cycling Status … AGAR Culture” value ([1]; P5, T = 6 h after injection) of the same molecule?
Answer: Its value is 1%.

Question: And the “Cycling Status of Progenitors, BFU-E” value ([1]; P5, T = 9 h after injection)?
Answer: Its value is 0%.

Question: What about the “Cycling Status of Progenitors, CFU-GEMM” value ([1]; P5, T = 9 h after injection) of the same molecule?
Answer: Its value is 0%.

Question: What about the “Cycling Status of Progenitors, CFU-GM” value ([1]; P5, T = 9 h after injection) of the same molecule?
Answer: The value was 0%.

Question: What about the “Cycling Status … AGAR Culture” value ([1]; P5, T = 9 h after injection) of the same molecule?
Answer: The value was 0%.

Question: What about the “Cycling Status of Progenitors, BFU-E” value ([1]; P5, T = 24 h after injection) of the same molecule?
Answer: Its value is 0%.

Question: What about the “Cycling Status of Progenitors, CFU-GEMM” value ([1]; P5, T = 24 h after injection) of the same molecule?
Answer: Its value is 0%.

Question: And the “Cycling Status of Progenitors, CFU-GM” value ([1]; P5, T = 24 h after injection)?
Answer: The value was 0%.

Question: And the “Cycling Status … AGAR Culture” value ([1]; P5, T = 24 h after injection)?
Answer: Its value is 0%.

Question: What about the “cycling state of progenitors” value ([1]; human donors, prior to and 1, 3, 6, 9 and 24 hours after injection) of the same molecule?
Answer: The value was “slow or non-cycling state”.

Question: What about the “time post-administration at which elevation of the white blood cell count maximized” value (white blood cells; [3]) of the same molecule?
Answer: Its value is 6 h.

Question: What about the white blood cells (white blood cells; [4]) of the same molecule?
Answer: The white blood cells was 14.8 ×10^3 WBC's.

Question: What about the white blood cells (white blood cells; volunteer P1, 2 Hr after 80 μg/kg s.c.) of the same molecule?
Answer: The white blood cells was 21.4 ×10^3 WBC's.

Question: What about the white blood cells (white blood cells; volunteer P1, 4 Hr after 80 μg/kg s.c.) of the same molecule?
Answer: Its white blood cells is 23.2 ×10^3 WBC's.

Question: What about the white blood cells (white blood cells; [5]) of the same molecule?
Answer: The white blood cells was 26.2 ×10^3 WBC's.

Question: What about the white blood cells (white blood cells; [6]) of the same molecule?
Answer: The white blood cells was 22.3 ×10^3 WBC's.

Question: And the white blood cells (white blood cells; volunteer P1, 30 Min after 80 μg/kg s.c.)?
Answer: The white blood cells was 8.02 ×10^3 WBC's.

Question: What about the white blood cells (white blood cells; [7]) of the same molecule?
Answer: The white blood cells was 7.07 ×10^3 WBC's.

Question: And the white blood cells (white blood cells; [8])?
Answer: Its white blood cells is 8.93 ×10^3 WBC's.

Question: And the white blood cells (white blood cells; volunteer P2, 2 Hr after 80 μg/kg s.c.)?
Answer: The white blood cells was 13.5 ×10^3 WBC's.

Question: What about the white blood cells (white blood cells; volunteer P2, 4 Hr after 80 μg/kg s.c.) of the same molecule?
Answer: The white blood cells was 18.00 ×10^3 WBC's.

Question: What about the white blood cells (white blood cells; [9]) of the same molecule?
Answer: The white blood cells was 19.2 ×10^3 WBC's.

Question: What about the white blood cells (white blood cells; [10]) of the same molecule?
Answer: The white blood cells was 19.6 ×10^3 WBC's.

Question: What about the white blood cells (white blood cells; volunteer P2, 30 Min after 80 μg/kg s.c.) of the same molecule?
Answer: Its white blood cells is 6.53 ×10^3 WBC's.

Question: And the white blood cells (white blood cells; [11])?
Answer: Its white blood cells is 8.03 ×10^3 WBC's.

Question: And the white blood cells (white blood cells; [12])?
Answer: Its white blood cells is 9.28 ×10^3 WBC's.

Question: What about the white blood cells (white blood cells; volunteer P3, 4 Hr after 80 μg/kg s.c.) of the same molecule?
Answer: Its white blood cells is 18.10 ×10^3 WBC's.

Question: And the white blood cells (white blood cells; volunteer P3, 6 Hr after 80 μg/kg s.c.)?
Answer: The white blood cells was 17.9 ×10^3 WBC's.

Question: What about the white blood cells (white blood cells; [13]) of the same molecule?
Answer: Its white blood cells is 18.4 ×10^3 WBC's.

Question: And the white blood cells (white blood cells; volunteer P3, 30 Min after 80 μg/kg s.c.)?
Answer: Its white blood cells is 7.14 ×10^3 WBC's.

Question: And the white blood cells (white blood cells; [14])?
Answer: The white blood cells was 4.98 ×10^3 WBC's.

Question: What about the white blood cells (white blood cells; [15]) of the same molecule?
Answer: The white blood cells was 7.38 ×10^3 WBC's.

Question: What about the white blood cells (white blood cells; volunteer P4, 2 Hr after 80 μg/kg s.c.) of the same molecule?
Answer: Its white blood cells is 12.4 ×10^3 WBC's.

Question: And the white blood cells (white blood cells; volunteer P4, 4 Hr after 80 μg/kg s.c.)?
Answer: Its white blood cells is 14.6 ×10^3 WBC's.

Question: What about the white blood cells (white blood cells; [16]) of the same molecule?
Answer: The white blood cells was 15.8 ×10^3 WBC's.

Question: And the white blood cells (white blood cells; [17])?
Answer: The white blood cells was 13.9 ×10^3 WBC's.

Question: And the white blood cells (white blood cells; volunteer P4, 30 Min after 80 μg/kg s.c.)?
Answer: The white blood cells was 4.37 ×10^3 WBC's.

Question: And the white blood cells (white blood cells; [18])?
Answer: Its white blood cells is 4.98 ×10^3 WBC's.

Question: And the white blood cells (white blood cells; [19])?
Answer: The white blood cells was 8.43 ×10^3 WBC's.

Question: What about the white blood cells (white blood cells; volunteer P5, 4 Hr after 80 μg/kg s.c.) of the same molecule?
Answer: Its white blood cells is 16.90 ×10^3 WBC's.

Question: And the white blood cells (white blood cells; [20])?
Answer: The white blood cells was 19.3 ×10^3 WBC's.

Question: And the white blood cells (white blood cells; [21])?
Answer: The white blood cells was 19.00 ×10^3 WBC's.

Question: What about the white blood cells (white blood cells; volunteer P5, 30 Min after 80 μg/kg s.c.) of the same molecule?
Answer: The white blood cells was 6.08 ×10^3 WBC's.

Question: What about the white blood cells (white blood cells; [22]) of the same molecule?
Answer: Its white blood cells is 4.57 ×10^3 WBC's.

Question: What about the “time post-administration at which elevation of CD34 positive progenitor cells maximized” value [2, 3] of the same molecule?
Answer: Its value is 6 h.

Question: And the CD34 positive cells [2, 4]?
Answer: The CD34 positive cells was “.04 percentage of the total WBC's”.

Question: What about the CD34 positive cells ([2]; volunteer P1, 3 Hr after 80 μg/kg s.c.) of the same molecule?
Answer: The CD34 positive cells was “.07 percentage of the total WBC's”.

Question: And the CD34 positive cells [2, 5]?
Answer: The CD34 positive cells was “.11 percentage of the total WBC's”.

Question: And the CD34 positive cells [2, 6]?
Answer: The CD34 positive cells was “.11 percentage of the total WBC's”.

Question: And the CD34 positive cells [2, 7]?
Answer: The CD34 positive cells was “.08 percentage of the total WBC's”.

Question: What about the CD34 positive cells [2, 8] of the same molecule?
Answer: Its CD34 positive cells is “.06 percentage of the total WBC's”.

Question: What about the CD34 positive cells ([2]; volunteer P2, 3 Hr after 80 μg/kg s.c.) of the same molecule?
Answer: The CD34 positive cells was “.08 percentage of the total WBC's”.

Question: What about the CD34 positive cells [2, 9] of the same molecule?
Answer: The CD34 positive cells was “.13 percentage of the total WBC's”.

Question: And the CD34 positive cells [2, 10]?
Answer: Its CD34 positive cells is “.11 percentage of the total WBC's”.

Question: And the CD34 positive cells [2, 11]?
Answer: The CD34 positive cells was “.12 percentage of the total WBC's”.

Question: And the CD34 positive cells [2, 12]?
Answer: Its CD34 positive cells is “.16 percentage of the total WBC's”.

Question: And the CD34 positive cells ([2]; volunteer P3, 3 Hr after 80 μg/kg s.c.)?
Answer: Its CD34 positive cells is “.06 percentage of the total WBC's”.

Question: What about the CD34 positive cells [2, 13] of the same molecule?
Answer: Its CD34 positive cells is “.11 percentage of the total WBC's”.

Question: What about the CD34 positive cells [2, 14] of the same molecule?
Answer: Its CD34 positive cells is “.07 percentage of the total WBC's”.

Question: What about the CD34 positive cells [2, 15] of the same molecule?
Answer: Its CD34 positive cells is “.07 percentage of the total WBC's”.

Question: And the CD34 positive cells ([2]; volunteer P4, 3 Hr after 80 μg/kg s.c.)?
Answer: The CD34 positive cells was “.09 percentage of the total WBC's”.

Question: What about the CD34 positive cells [2, 16] of the same molecule?
Answer: Its CD34 positive cells is “.09 percentage of the total WBC's”.

Question: What about the CD34 positive cells [2, 17] of the same molecule?
Answer: Its CD34 positive cells is “.1 percentage of the total WBC's”.

Question: And the CD34 positive cells [2, 18]?
Answer: Its CD34 positive cells is “.1 percentage of the total WBC's”.

Question: And the CD34 positive cells [2, 19]?
Answer: Its CD34 positive cells is “.12 percentage of the total WBC's”.

Question: What about the CD34 positive cells ([2]; volunteer P5, 3 Hr after 80 μg/kg s.c.) of the same molecule?
Answer: Its CD34 positive cells is “.13 percentage of the total WBC's”.

Question: What about the CD34 positive cells [2, 20] of the same molecule?
Answer: The CD34 positive cells was “.2 percentage of the total WBC's”.

Question: What about the CD34 positive cells [2, 21] of the same molecule?
Answer: Its CD34 positive cells is “.2 percentage of the total WBC's”.

Question: And the CD34 positive cells [2, 22]?
Answer: The CD34 positive cells was “.16 percentage of the total WBC's”.
